One data set in a line: Solubility of Compound I. It is filed as physicochemical. The method, then:
(§1) The melting range of Compound I is from 120.5-151° C. In both Samples 4A and 4B, the drug loading is 4% or 20 mg/capsule.

Another data set in a line: Log P in octanol. It is filed as physicochemical. How it is done: as §1

In brackets after ≈: the same amount, converted by molar mass.

The values below come from patent US20080064760A1, “Spontaneously Dispersible Pharmaceutical Composition” (priority 2004, published 2008).

Broadly, the solubility is how much of the substance goes into solution per volume. Lower therefore signals a poorly soluble substance. Molecule `COC(=O)N[C@]1(C)Cc2ccc(NC(=O)c3cccc(C)c3-c3ccc(C(F)(F)F)cc3)cc2C1` [Compound I] returned a solubility in the data set “Solubility of Compound I” of 0.17 µg/mL (≈ 0.352 µM). In addition, the “Log P in octanol” value in the data set “Log P in octanol” turned out to be 4.66.
